In PubChem BioAssay (NCI) one finds GI50 and TGI data, which are given here for nine molecules.

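Test compounds were applied to cells in 96-well plates for 48 hours at 5 doses. The concentration for 50% growth inhibition is given as GI50. TGI: total growth inhibition.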

Some test systems named below: CCRF-CEM leukemia; HOP-92 NSCLC; HT29 colon; KM12 colon; M14 melanoma; NCI-H226 lung; RPMI-8226 leukemia; SW-620 colon; UACC-257 melanoma; UO-31 renal.
What all share (experiment): DTP human tumour cell line panel, 48 h

As for `C1=C\COCc2cc(ccc2OCCN2CCCC2)Nc2nccc(n2)-c2cccc(c2)COC/1`, the GI50 was 2.56 µM in the assay with CCRF-CEM leukemia; 1.34 µM in the assay on HOP-92 NSCLC; 1.18 µM in the assay with HT29 colon; 0.348 µM in the assay on KM12 colon; 1.75 µM in the assay on M14 melanoma; 3.19 µM in the assay on NCI-H226 lung. Besides, the GI50 in the assay on RPMI-8226 leukemia is 3.12 µM; in the assay with SW-620 colon, 1.48 µM; in the assay on UACC-257 melanoma, 2.53 µM; in the assay on UO-31 renal it was 0.722 µM. The TGI stood at 7 µM in the assay with CCRF-CEM leukemia; 4.86 µM with HOP-92 NSCLC; 5.04 µM with HT29 colon; 3.74 µM with KM12 colon; 4.72 µM in the assay on M14 melanoma; 5.09 µM in the assay with NCI-H226 lung. The TGI in the assay with RPMI-8226 leukemia was found to be 6.35 µM; in the assay on SW-620 colon it was 6.07 µM; with UACC-257 melanoma it was 5.66 µM; with UO-31 renal, 4.01 µM.

With `S=c1[nH]c(=S)c2nnn(-c3ccccc3)c2[nH]1`, the TGI in the assay with CCRF-CEM leukemia, with HOP-92 NSCLC, in the assay on HT29 colon, with KM12 colon, in the assay with M14 melanoma and in the assay with NCI-H226 lung was over 100 µM throughout. Also, the TGI with RPMI-8226 leukemia, with SW-620 colon, in the assay on UACC-257 melanoma and in the assay with UO-31 renal was over 100 µM in each case.

On to `N=C(N)c1ccc2nc(-c3cc(CC(=O)N[C@@H](CC(=O)O)C(=O)O)cc(-c4cc(S(N)(=O)=O)ccc4O)c3O)[nH]c2c1`, for which the GI50 with CCRF-CEM leukemia, with HOP-92 NSCLC, in the assay on HT29 colon, with KM12 colon, in the assay on M14 melanoma and with NCI-H226 lung was over 100 µM throughout. For the same molecule, the GI50 in the assay with RPMI-8226 leukemia, in the assay with SW-620 colon, in the assay on UACC-257 melanoma and with UO-31 renal was over 100 µM throughout. Besides, the TGI in the assay on CCRF-CEM leukemia, with HOP-92 NSCLC, with HT29 colon, in the assay with KM12 colon, with M14 melanoma and in the assay with NCI-H226 lung was over 100 µM in each case. Further, the TGI with RPMI-8226 leukemia, in the assay with SW-620 colon, in the assay on UACC-257 melanoma and in the assay on UO-31 renal was over 100 µM each time.

In the case of `CC(C)N(C(=O)C12C3C4C1(I)C1C2C3(I)C41C(=O)N(C(C)C)C(C)C)C(C)C` (stereo not given), the concentration for total growth inhibition (TGI) was over 61.2 µM in the assay with CCRF-CEM leukemia; over 100 µM in the assay on HOP-92 NSCLC; over 100 µM with HT29 colon; over 62.5 µM in the assay on KM12 colon; over 100 µM with M14 melanoma; over 100 µM in the assay with NCI-H226 lung. Moreover, the TGI is over 72.5 µM in the assay with RPMI-8226 leukemia, over 59.6 µM with SW-620 colon, over 100 µM with UACC-257 melanoma and over 100 µM in the assay on UO-31 renal.

Consider `Cc1cc(C)c(NC(=O)c2sc3nc4c(cc3c2N)CN(Cc2ccccc2)CC4)c(C)c1`, for which the GI50 in the assay with CCRF-CEM leukemia was 3.16 µM; in the assay on HOP-92 NSCLC it was 0.877 µM; with HT29 colon, 2.88 µM; in the assay on KM12 colon, 3.26 µM; in the assay on M14 melanoma, 2.89 µM; with NCI-H226 lung, 4.69 µM. Further, the GI50 in the assay on RPMI-8226 leukemia is 3.18 µM; in the assay on SW-620 colon, 2.6 µM; with UACC-257 melanoma, 6.71 µM; in the assay with UO-31 renal, 4.78 µM. Also, the TGI in the assay with CCRF-CEM leukemia is 59.7 µM; in the assay on HOP-92 NSCLC it was 42.6 µM; in the assay on HT29 colon, 13.2 µM; with KM12 colon, 43.1 µM; in the assay on M14 melanoma it was 31.5 µM; with NCI-H226 lung, over 100 µM. For the same molecule, the TGI in the assay with RPMI-8226 leukemia was 35.1 µM; in the assay with SW-620 colon, 17.1 µM; in the assay with UACC-257 melanoma it was over 100 µM; in the assay on UO-31 renal, 93.9 µM.

For `COc1ccc(-c2ccc(-c3ccc(C(=N)N)s3)s2)cc1`, the 50% growth inhibitory concentration (GI50) with CCRF-CEM leukemia was 0.208 µM; in the assay with HOP-92 NSCLC, 1.16 µM; in the assay on HT29 colon, 0.181 µM; with KM12 colon it was 0.19 µM; in the assay with M14 melanoma, 0.18 µM; with NCI-H226 lung it was 2.06 µM. Further, the concentration for 50% growth inhibition (GI50) with RPMI-8226 leukemia was 0.221 µM; in the assay with SW-620 colon it was 0.18 µM; in the assay with UACC-257 melanoma, 0.746 µM; in the assay with UO-31 renal, 0.181 µM. The TGI with CCRF-CEM leukemia was found to be 0.485 µM; with HOP-92 NSCLC it was 2.71 µM; in the assay with HT29 colon it was 0.375 µM; with KM12 colon, 0.357 µM; in the assay on M14 melanoma, 0.344 µM; in the assay on NCI-H226 lung, 5.15 µM. The TGI in the assay on RPMI-8226 leukemia was 0.469 µM; in the assay with SW-620 colon, 0.353 µM; with UACC-257 melanoma, 1.68 µM; with UO-31 renal, 0.355 µM.

Consider `COC(=O)/C=C/c1c(CC=C(C)C)ncn1C`, for which the concentration for total growth inhibition (TGI) was over 100 µM in the assay with CCRF-CEM leukemia; over 100 µM in the assay with HOP-92 NSCLC; over 100 µM with HT29 colon; over 100 µM in the assay with KM12 colon; over 100 µM with M14 melanoma; over 89.8 µM with NCI-H226 lung. For the same molecule, the concentration for total growth inhibition (TGI) in the assay on RPMI-8226 leukemia is over 100 µM; with SW-620 colon, over 100 µM; in the assay with UACC-257 melanoma it was over 100 µM; with UO-31 renal, over 92.7 µM.

On to `[N-]=[N+]=Nc1cc(=O)n2c3c(cccc13)CCC2`, for which the TGI with CCRF-CEM leukemia, with HOP-92 NSCLC, in the assay with HT29 colon, in the assay with KM12 colon, with M14 melanoma and in the assay with NCI-H226 lung was over 100 µM in each case. Moreover, the TGI in the assay with RPMI-8226 leukemia, with SW-620 colon, in the assay on UACC-257 melanoma and in the assay with UO-31 renal was over 100 µM in each case.

In the case of `CSc1ccc2c(c1)C(=O)c1c-2n(CCCBr)c(=O)c2cc([N+](=O)[O-])ccc12`, the GI50 in the assay with CCRF-CEM leukemia is 0.451 µM; in the assay with HOP-92 NSCLC, 0.356 µM; with HT29 colon, 28.2 µM; in the assay on KM12 colon, 46.1 µM; in the assay with M14 melanoma, 3.38 µM; in the assay on NCI-H226 lung, 33.6 µM. The GI50 in the assay on RPMI-8226 leukemia is 4.11 µM; in the assay on SW-620 colon, 4.04 µM; in the assay on UACC-257 melanoma, over 100 µM; with UO-31 renal it was 3.63 µM. Moreover, the concentration for total growth inhibition (TGI) was over 100 µM with CCRF-CEM leukemia; 10.3 µM in the assay on HOP-92 NSCLC; over 100 µM in the assay with HT29 colon; over 100 µM in the assay on KM12 colon; over 100 µM in the assay on M14 melanoma; over 100 µM in the assay on NCI-H226 lung. Also, the concentration for total growth inhibition (TGI) in the assay on RPMI-8226 leukemia, in the assay with SW-620 colon, with UACC-257 melanoma and in the assay on UO-31 renal was over 100 µM each time.
